{"source": "the NIST ThermoML archive (doi:10.1021/acs.jced.7b00263)", "conditions": "Liquid, Closed cell (Static) method", "note": "Numbers after ± are expanded uncertainties."}
{"smiles": "F/C=C\\C(F)(F)F", "note": "[(Z)-1,3,3,3-tetrafluoro-1-propene]", "values": [{"measurement": "vapor or sublimation pressure", "setting": "353.17 K", "value": "858.3 ± 1.4", "unit": "kPa"}, {"measurement": "vapor or sublimation pressure", "setting": "373.14 K", "value": "1347.5 ± 2.1", "unit": "kPa"}, {"measurement": "vapor or sublimation pressure", "setting": "393.12 K", "value": "2023.7 ± 3.2", "unit": "kPa"}, {"measurement": "vapor or sublimation pressure", "setting": "413.14 K", "value": "2940.4 ± 4.6", "unit": "kPa"}]}
